In ChEMBL document CHEMBL1201862, “PubChem BioAssay data set” (2004):
The source made the active and inactive calls. Rule as the data show it: actives have a measured IC50 and inactives only a lower limit.

Target: Envelope glycoprotein gp160 (Human immunodeficiency virus 1, UniProt Q6QLK5)
Assay: cell-free HIV fusion peptide-binding blockers – biochemical, uHTS, fluorescence dequenching, […] (AID 1986)

Envelope glycoprotein gp160, sequence (Q6QLK5 whole entry, the tested form may be a part): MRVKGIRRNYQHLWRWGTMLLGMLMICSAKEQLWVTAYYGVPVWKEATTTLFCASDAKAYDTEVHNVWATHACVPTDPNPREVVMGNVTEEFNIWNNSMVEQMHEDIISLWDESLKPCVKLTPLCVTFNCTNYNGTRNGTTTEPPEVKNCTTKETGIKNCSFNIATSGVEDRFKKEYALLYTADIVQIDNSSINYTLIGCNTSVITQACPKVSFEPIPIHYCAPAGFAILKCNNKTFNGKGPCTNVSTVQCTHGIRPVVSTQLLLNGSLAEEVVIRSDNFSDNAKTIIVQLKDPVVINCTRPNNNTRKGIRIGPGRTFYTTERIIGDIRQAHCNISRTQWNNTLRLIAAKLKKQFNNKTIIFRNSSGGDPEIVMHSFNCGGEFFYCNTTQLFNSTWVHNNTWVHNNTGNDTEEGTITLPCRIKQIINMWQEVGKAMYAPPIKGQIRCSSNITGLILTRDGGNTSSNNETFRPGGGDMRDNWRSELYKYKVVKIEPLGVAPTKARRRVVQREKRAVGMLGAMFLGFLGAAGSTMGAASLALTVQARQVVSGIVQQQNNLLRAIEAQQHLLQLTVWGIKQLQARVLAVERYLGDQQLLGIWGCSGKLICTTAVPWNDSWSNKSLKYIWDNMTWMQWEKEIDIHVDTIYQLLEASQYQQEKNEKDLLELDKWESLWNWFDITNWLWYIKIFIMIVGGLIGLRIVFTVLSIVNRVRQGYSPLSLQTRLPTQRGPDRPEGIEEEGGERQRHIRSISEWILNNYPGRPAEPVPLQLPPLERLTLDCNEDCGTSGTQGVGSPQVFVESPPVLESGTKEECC

COc1cc(/C=C2\SC(=O)N(CC(=O)Nc3cccc(C)c3)C2=O)cc([N+](=O)[O-])c1O
IC50: 23.1 µM (active)
